Laboratory results taken from US20260199305A1, “LONG-ACTING ORAL PHARMACEUTICAL COMPRISING HYPOXIA-INDUCIBLE FACTOR PROLYL HYDROLASE INHIBITOR AND USE THEREOF” (Kind Pharmaceutical, priority 2023, published 2026).
Like-named read-outs stand apart in the source and are kept apart here.

Experiments:
[1] = Elimination half-life in rats after single oral gavage; type: in vivo; conditions: SD, rat, plasma
Method: Preparation of Single-Dose Oral Formulation: 25.3800 g of meglumine (Sigma) was weighed and dissolved in 80 mL of deionized water. The resulting mixture was stirred for 35 minutes and the volume was made up to 130 mL to obtain a 1M meglumine solution. 4.31 mg, 13.54 mg, and 40.59 mg of Comp-1 were weighed separately and then added to 28.676 mL, 27 mL, and 27 mL of the 1M meglumine solution respectively. The resulting mixtures each was stirred for 31 minutes and sonicated for 5 minutes to obtain colorless transparent solutions with Comp-1 concentrations of 0.15 mg/mL, 0.5 mg/mL, and 1.5 mg/mL, respectively.
18 SD rats (half male, half female) were randomly divided into 3 groups (3 males and 3 females per group). Comp-1 was administered by oral gavage at doses of 1.5, 5.0, and 15.0 mg/kg. Blood samples were collected before administration and at 0.25, 0.5, 1, 2, 4, 6, 8, 24, 48, and 72 hours after administration. The oral vehicle was a 1 M meglumine solution in deionized water, and the administration volume was 10 mL/kg for all doses. All collected plasma samples were stored at −75±15° C. until analysis. The concentration of Comp-1 in SD rat plasma was determined using liquid chromatography-tandem mass spectrometry with Tolbutamide as an internal standard. The mass spectrometer utilized an electrospray ionization source operating in positive ion mode. The precursor-to-product ion transitions monitored were m/z 381.2→306.3 for Comp-1 and m/z 270.9->155.0 for Tolbutamide. Pharmacokinetic parameters of Comp-1 were calculated by software Phoenix™ WinNonlin version 6.1 using a non-compartmental model. Pharmacokinetic data were calculated using a linear log trapezoidal method with a weighting of 1/Y*Y. Samples with concentrations below the lower limit of quantification were not included in the calculation of pharmacokinetic parameters. Microsoft Excel 2010 was used to calculate the mean values of various parameters, with the mean determined from the pharmacokinetic parameters of each animal. The mean elimination half-lives of Comp-1 in male rats at the doses of 1.5, 5.0, and 15.0 mg/kg were: 6.72 hours, 15.0 hours, and 10.2 hours, respectively. The mean elimination half-lives of Comp-1 in female rats at the doses of 1.5, 5.0, and 15.0 mg/kg were: 12.9 hours, 5.72 hours, and 24.9 hours, respectively.

Normal Mice = experiment: Hemoglobin increase in normal mice, oral QD, TIW, QW; type: in vivo, C57BL/6J mice
Excerpt: This experiment evaluated the effects of different dosing frequencies of the test compound Comp-1 at the same weekly dose on hemoglobin and various routine hematological parameters in male C57BL/6J mice.
After acclimatization feeding, on Day 0, submandibular vein blood was collected from 92 male mice aged 6-8 weeks for routine hematological analysis. Based on the Day 0 Hb (hemoglobin) results, 80 mice were selected for use in this experiment and divided into groups as follows: Vehicle (QD, 5 mice), Comp-1 (4.5 mg/kg, QD, 5 mice), Comp-1 (10.5 mg/kg, TIW, 5 mice), Comp-1 (31.5 mg/kg, QW, 5 mice), Comp-1 (9 mg/kg, QD, 15 mice), Comp-1 (21 mg/kg, TIW, 15 mice), Comp-1 (63 mg/kg, QW, 15 mice), Comp-1 (15 mg/kg, QD, 5 mice), Comp-1 (35 mg/kg, TIW, 5 mice), and Comp-1 (105 mg/kg, QW, 5 mice). On Day 14 and Day 28, submandibular vein blood was collected for routine hematological analysis. Quantitative data results were analyzed statistically using one-way analysis of variance (ANOVA) between groups, followed by Dunnett's multiple comparison method. Two-tailed analysis was used for statistics, and the statistical significance level was set at P<0.05.

[2] = Phase 1 single-dose and multiple-dose pharmacokinetics in healthy volunteers; type: in vivo, Humans; conditions: for half-life / Tmax: human, oral; for Tmax: read-out: median Tmax
Method: In a Phase 1, randomized, double-blind, placebo-controlled, single-dose and multiple-dose clinical study, a total of 46 healthy volunteers were assigned to one of six dose groups (1 mg, 4 mg, 10 mg, 20 mg, 30 mg, 50 mg) in a single-dose phase. In each dose group, 2 volunteers received a matching placebo. In the 1 mg dose group, 4 volunteers received a single dose of Comp-1 and in the remaining dose groups, 6 volunteers each received a single dose of Comp-1. Blood samples were collected from volunteers within 1 hour before dosing and at 0.5, 1, 1.5, 2, 3, 4, 5, 6, 7, 8, 10, 12, 24, 48, and 72 hours after dosing for pharmacokinetic (PK) analysis.
A total of 32 healthy volunteers were assigned to one of four dose groups (4 mg, 10 mg, 20 mg, 30 mg) in a multiple-dose phase. In each dose group, 2 volunteers received a matching placebo and 6 volunteers received Comp-1 once daily for 10 consecutive days. Blood samples for PK analysis were collected from volunteers within 1 hour before dosing and at 0.5, 1, 1.5, 2, 3, 4, 5, 6, 7, 8, 10, 12, and 24 hours after dosing on the first dosing day (i.e., Day 1), as well as within 1 hour before dosing and at 0.5, 1, 2, 3, 4, 5, 6, 7, 8, 10, 12, 24, 48, and 72 hours after dosing on Days 6, 7, 8, and 10.

[3] = 4.5 mg/kg, QD, total weekly dose 31.5 mg/kg
[4] = 9.0 mg/kg, QD, total weekly dose 63.0 mg/kg
[5] = 10.5 mg/kg, TIW, total weekly dose 31.5 mg/kg
[6] = 15.0 mg/kg, QD, total weekly dose 105.0 mg/kg
[7] = 21.0 mg/kg, TIW, total weekly dose 63.0 mg/kg
[8] = 31.5 mg/kg, QW, total weekly dose 31.5 mg/kg
[9] = 35.0 mg/kg, TIW, total weekly dose 105.0 mg/kg
[10] = 63.0 mg/kg, QW, total weekly dose 63.0 mg/kg
[11] = 105.0 mg/kg, QW, total weekly dose 105.0 mg/kg
[12] = after 10 consecutive days of dosing
[13] = multiple-dose phase, after the first dose

## O=C(O)CNC(=O)C1=C(O)C2(CCCC2)n2c(ccc2-c2ccccc2)C1=O [Comp-1, (6′-hydroxy-8′-oxo-3′-phenyl-8′H-spiro[cyclopentane-1,5′-indolizine]-7′-carbonyl)glycine]
[1]; female rats, 1.5 mg/kg oral gavage
  half-life: 12.9 h
[1]; female rats, 5.0 mg/kg oral gavage
  half-life: 5.72 h
[1]; female rats, 15.0 mg/kg oral gavage
  half-life: 24.9 h
[1]; male rats, 1.5 mg/kg oral gavage
  half-life: 6.72 h
[1]; male rats, 5.0 mg/kg oral gavage
  half-life: 15 h
[1]; male rats, 15.0 mg/kg oral gavage
  half-life: 10.2 h
Normal Mice; [3]
  Hb Day 0: 15.2 ± 0.61 g/dL
  Hb Day 14: 18.2 ± 0.52 g/dL
  Hb Day 28: 19.7 ± 0.53 g/dL
Normal Mice; [4]
  Hb Day 0: 15.3 ± 0.51 g/dL
  Hb Day 14: 20.6 ± 0.44 g/dL
  Hb Day 28: 23.1 ± 0.80 g/dL
Normal Mice; [5]
  Hb Day 0: 15.3 ± 0.66 g/dL
  Hb Day 14: 17.9 ± 0.54 g/dL
  Hb Day 28: 19.2 ± 0.22 g/dL
Normal Mice; [6]
  Hb Day 0: 15.3 ± 0.48 g/dL
  Hb Day 14: 20.1 ± 0.54 g/dL
  Hb Day 28: 22.8 ± 0.29 g/dL
Normal Mice; [7]
  Hb Day 0: 15.3 ± 0.49 g/dL
  Hb Day 14: 19.7 ± 0.77 g/dL
  Hb Day 28: 22.0 ± 0.11 g/dL
Normal Mice; [8]
  Hb Day 0: 15.3 ± 0.48 g/dL
  Hb Day 14: 16.7 ± 0.40 g/dL
  Hb Day 28: 17.2 ± 0.52 g/dL
Normal Mice; [9]
  Hb Day 0: 15.3 ± 0.44 g/dL
  Hb Day 14: 18.9 ± 0.11 g/dL
  Hb Day 28: 22.4 ± 0.57 g/dL
Normal Mice; [10]
  Hb Day 0: 15.3 ± 0.51 g/dL
  Hb Day 14: 17.4 ± 0.62 g/dL
  Hb Day 28: 18.5 ± 0.74 g/dL
Normal Mice; [11]
  Hb Day 0: 15.3 ± 0.50 g/dL
  Hb Day 14: 19.0 ± 0.40 g/dL
  Hb Day 28: 20.0 ± 0.48 g/dL
Normal Mice; Day 14 and Day 28, all groups receiving Comp-1, P<0.001
  mean hemoglobin values vs Vehicle control group: significantly different
[2]; [12]
  exposure (Css,max, AUC0-t, AUC0-t, and AUC0-inf): increased in a dose-proportional manner
  mean clearance (CL/F): no dose-related trend
[2]; blood, after 10 consecutive days of once daily dosing, 4-30 mg, read-out: mean elimination half-life
  half-life: 12.4 to 15.8 h
[2]; blood, after 10 consecutive days of once daily dosing, 4-30 mg
  Tmax: 3 to 4 h
[2]; blood, multiple-dose phase, first dose on Day 1, 4-30 mg, read-out: mean half-life
  half-life: 10.1 to 19.4 h
[2]; blood, multiple-dose phase, first dose on Day 1, 4-30 mg
  Tmax: 2 to 3 h
[2]; in vivo, single-dose phase, 1-50 mg, healthy volunteers, read-out: mean elimination half-life (t½)
  half-life: 13.1 to 19.7 h
[2]; in vivo, single-dose phase, 1-50 mg, healthy volunteers
  Tmax: 3 to 4.5 h
[2]; [13]
  CLF: no apparent trend with dose
  exposure (Cmax, AUC0-t, and AUC0-inf): increased with dose
[2]; single-dose phase
  exposure (Cmax, AUC0-t, and AUC0-inf): increased in a dose-proportional manner
  mean clearance (CL/F): no dose-related trend
